Measurements: patent publication US9896441B2 (Lycera Corporation, priority 2014, dated 2018)
pEC50: −log10 of the molar value.

Key:
[1] = molecular target: T1, RORγ-LBD (Homo sapiens, UniProt P51449); test: RORγ-Ligand Binding Domain (LBD) TR-FRET Assay; type: biochemical; settings: for TR-FRET Assay Max Response: maximum response;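 for TR-FRET Assay Max Response: 665/615 nm signal ratio set to 100 without ursolic acid or test compound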
T1 construct: made in house; host or cells: SF9 cells (baculovirus); used as diluted lysate
T1 sequence (P51449 269-508 limits assumed): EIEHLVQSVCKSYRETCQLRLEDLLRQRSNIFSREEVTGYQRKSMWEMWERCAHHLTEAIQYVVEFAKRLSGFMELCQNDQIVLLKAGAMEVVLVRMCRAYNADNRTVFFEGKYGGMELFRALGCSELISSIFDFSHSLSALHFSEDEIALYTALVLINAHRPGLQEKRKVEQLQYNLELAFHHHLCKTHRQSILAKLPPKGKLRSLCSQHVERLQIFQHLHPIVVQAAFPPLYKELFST
Method in brief: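 Compounds, diluted in DMSO and then in assay buffer (1% DMSO final), were combined with His-tagged RORγ-LBD lysate at roughly 3 nM final and a 200 nM biotinylated SRC1 LXXLL peptide. Ursolic acid was included at 2 μM final. Coactivator recruitment was detected by TR-FRET.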

[2] = molecular target: T2, Gal4-RORγ-LBD (Homo sapiens, UniProt P51449); test: Gal4-RORγ Luciferase Reporter Assay in HEK-293T Cells; type: cell-based; settings: HEK-293 cells; for Gal4-RORγ Assay Max Response: maximum response
T2 construct: expressed in transfected cells
T2 sequence (P51449 269-508 limits assumed): T1 sequence (P51449 269-508 limits assumed)
Method in brief: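 Max Response was taken as the upper plateau of a 4-parameter logistic fit of luciferase signal, normalized to 100 for wells without ursolic acid or compound. Transiently Gal4-RORγ-LBD/Gal4-luc transfected HEK-293 cells carrying […] ursolic acid were incubated with test compounds (0.2% DMSO) overnight at 37 °C and read with One-Glo.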

[3] = luciferase reporter, with ursolic acid
[4] = luciferase reporter, in presence of ursolic acid

Compound	pEC50 ([1]; RORγ-LBD TR-FRET)	pEC50 [2, 3]	also measured
CCOC(=O)C(C)(C)C[C@H]1C[C@H](S(=O)(=O)c2cccc(C(F)(F)F)c2)c2cc(/C=C(\C)c3c(F)cccc3Cl)ccc2O1 [Example 186M, ethyl 3-((2S,45)-6-((E)-2-(2-chloro-6-fluorophenyl)prop-1-en-1-yl)-4-((3-(trifluoromethyl)-phenyl)sulfonyl)chroman-2-yl)-2,2-dimethylpropanoate]	–	–	pEC50 ([1]; RORγ-LBD TR-FRET assay): > 6.30; TR-FRET Assay Max Response ([1]; RORγ-LBD TR-FRET assay): *** (a value in the range of greater than 150 to 200); pEC50 [2, 4]: > 6.30; Gal4-RORγ Assay Max Response [2, 4]: * (a value in the range of 30 to 90)
CCOC(=O)C1CCN(CCC[C@H]2CN(S(=O)(=O)c3cccc(C(F)(F)F)c3)c3cc(/C=C(\C)c4c(F)cccc4Cl)ccc3O2)CC1 [Example 119E, ethyl (S,E)-1-(3-(6-(2-(2-chloro-6-fluorophenyl)prop-1-en-1-yl)-4-((3-(trifluoromethyl)phenyl)sulfonyl)-3,4-dihydro-2H-benzo[b][1,4]oxazin-2-yl)propyl)piperidine-4-carboxylate]	–	–	pEC50 ([1]; RORγ-LBD TR-FRET assay): > 6.30; TR-FRET Assay Max Response ([1]; RORγ-LBD TR-FRET assay): *** (a value in the range of greater than 150 to 200); pEC50 [2, 4]: 5.30 to 6.30; Gal4-RORγ Assay Max Response [2, 4]: ** (a value in the range of greater than 90 to 150)
C/C(=C\c1ccc2c(c1)N(S(=O)(=O)c1c(Cl)nc3sccn13)C[C@H](CCC(=O)O)O2)c1c(F)cccc1Cl [Example 86U, (S,E)-3-(6-(2-(2-chloro-6-fluorophenyl)prop-1-en-1-yl)-4-((6-chloroimidazo[2,1-b]thiazol-5-yl)sulfonyl)-3,4-dihydro-2H-benzo[b][1,4]oxazin-2-yl)propanoic acid]	> 6.30	5.30 to 6.30	–
C/C(=C\c1ccc2c(c1)N(S(=O)(=O)c1cc(C(F)(F)F)cnc1OCCO)C[C@H](CCC(=O)O)O2)c1c(F)cccc1Cl [Example 71, (S,E)-3-(6-(2-(2-Chloro-6-fluorophenyl)prop-1-en-1-yl)-4-((2-(2-hydroxyethoxy)-5-(trifluoromethyl)pyridin-3-yl)sulfonyl)-3,4-dihydro-2H-benzo[b][1,4]oxazin-2-yl)propanoic acid]	> 6.30	> 6.30	–
C/C(=C\c1ccc2c(c1)N(S(=O)(=O)c1cccc(C(F)(F)F)c1)C[C@H](CCC(=O)N1CCOCC1)O2)c1c(F)cccc1Cl [Example 127B, (S,E)-3-(6-(2-(2-chloro-6-fluorophenyl)prop-1-en-1-yl)-4-((3-(trifluoromethyl)phenyl)sulfonyl)-3,4-dihydro-2H-benzo[b][1,4]oxazin-2-yl)-1-morpholino-propan-1-one]	–	–	pEC50 ([1]; RORγ-LBD TR-FRET assay): > 6.30; TR-FRET Assay Max Response ([1]; RORγ-LBD TR-FRET assay): **** (a value greater than 200); pEC50 [2, 4]: > 6.30; Gal4-RORγ Assay Max Response [2, 4]: ** (a value in the range of greater than 90 to 150)
CCOc1ncc(C(F)(F)F)cc1S(=O)(=O)N1C[C@H](CCC(=O)OC)Oc2ccc(/C=C(\C)c3c(F)cccc3Cl)cc21 [Example 33, (S,E)-Methyl 3-(6-(2-(2-chloro-6-fluorophenyl)prop-1-en-1-yl)-4-((2-ethoxy-5-(trifluoromethyl)pyridin-3-yl)sulfonyl)-3,4-dihydro-2H-benzo[b][1,4]oxazin-2-yl)propanoate]	> 6.30	5.30 to 6.30	–
C/C(=C\c1ccc2c(c1)N(S(=O)(=O)c1cccc(C(F)(F)F)c1)C[C@H](CCC(=O)N1CCC[C@@H]1C(=O)O)O2)c1c(F)cccc1Cl [Example 129H, (3-((S)-6-((E)-2-(2-chloro-6-fluorophenyl)prop-1-en-1-yl)-4-((3-(trifluoromethyl)phenyl)sulfonyl)-3,4-dihydro-2H-benzo[b][1,4]oxazin-2-yl)propanoyl)-D-proline]	–	–	pEC50 ([1]; RORγ-LBD TR-FRET assay): > 6.30; TR-FRET Assay Max Response ([1]; RORγ-LBD TR-FRET assay): *** (a value in the range of greater than 150 to 200); pEC50 [2, 4]: > 6.30; Gal4-RORγ Assay Max Response [2, 4]: *** (a value in the range of greater than 150 to 200)
C/C(=C\c1ccc2c(c1)N(S(=O)(=O)c1cn(CC(F)F)nc1OCCO)C[C@H](CCC(=O)O)O2)c1c(F)cccc1Cl [Example 86AZ, (S)-3-(6-(2-(2-chloro-6-fluorophenyl)prop-1-en-1-yl)-4-((1-(2,2-difluoroethyl)-3-(2-hydroxyethoxy)-1H-pyrazol-4-yl)sulfonyl)-3,4-dihydro-2H-benzo[b][1,4]oxazin-2-yl)propanoic acid]	> 6.30	5.30 to 6.30	–
CCOc1nn(CC)cc1S(=O)(=O)N1CC(C(=O)O)Cc2ccc(OCc3c(F)cccc3Cl)cc21 (centres unmarked)	–	–	pEC50 ([1]; with 2 μM ursolic acid (RORγ antagonist), highest test concentration 10 μM): > 6.30; pEC50 ([2]; ursolic acid present, luciferase readout): < 5.00
CCOc1nn(CC)cc1S(=O)(=O)N1C[C@H](CCC(=O)O)Oc2ccc(/C=C/c3c(F)cccc3C(F)(F)F)cc21 [Example 88, (S,E)-3-(4-((3-Ethoxy-1-ethyl-1H-pyrazol-4-yl)sulfonyl)-6-(2-fluoro-6-(trifluoromethyl)styryl)-3,4-dihydro-2H-benzo[b][1,4]oxazin-2-yl)propanoic acid]	> 6.30	5.30 to 6.30	–
C/C(=C\c1ccc2c(c1)C(S(=O)(=O)c1cccc(C(F)(F)F)c1)CC(CN)O2)c1c(F)cccc1Cl (centres unmarked) [Example 180, (E)-(6-(2-(2-Chloro-6-fluorophenyl)prop-1-en-1-yl)-4-((3-(trifluoromethyl)phenyl)sulfonyl)chroman-2-yl)methanamine]	–	–	pEC50 ([1]; RORγ-LBD TR-FRET assay): > 6.30; TR-FRET Assay Max Response ([1]; RORγ-LBD TR-FRET assay): *** (a value in the range of greater than 150 to 200); pEC50 [2, 4]: 5.30 to 6.30; Gal4-RORγ Assay Max Response [2, 4]: * (a value in the range of 30 to 90)

Second part, led by results:

pEC50 ([1]; RORγ-LBD TR-FRET)	pEC50 [2, 3]	Compound	also measured
5.30 to 6.30	< 5.00	Cn1cnc(S(=O)(=O)N2C[C@H](CCC(=O)O)Oc3ccc(/C=C/c4c(F)cccc4Cl)cc32)c1Cl [Example 89DZ, (S,E)-3-(4-((5-chloro-1-methyl-1H-imidazol-4-yl)sulfonyl)-6-(2-chloro-6-fluorostyryl)-3,4-dihydro-2H-benzo[b][1,4]-oxazin-2-yl)propanoic acid]	–
> 6.30	5.30 to 6.30	C[C@H]1CN(S(=O)(=O)c2cc(C(F)(F)F)cnc2OCCO)c2cc(/C=C/c3c(Cl)cccc3C(F)(F)F)ccc2O1 [Example 89EX, (S,E)-2-((3-((6-(2-chloro-6-(trifluoromethyl)styryl)-2-methyl-2,3-dihydro-4H-benzo[b][1,4]oxazin-4-yl)sulfonyl)-5-(trifluoromethyl)-pyridin-2-yl)oxy)ethan-1-ol]	–
> 6.30	5.30 to 6.30	CCc1ccccc1/C=C/c1ccc2c(c1)N(S(=O)(=O)c1cccc(OC(F)F)c1)C[C@H](CCC(=O)O)O2 [Example 89AW, (S,E)-3-(4-((3-(difluoromethoxy)phenyl)sulfonyl)-6-(2-ethylstyryl)-3,4-dihydro-2H-benzo[b][1,4]oxazin-2-yl)propanoic acid]	–
> 6.30	< 5.00	CCOc1nn(CC)cc1S(=O)(=O)N1C[C@H](CCC(=O)O)Oc2ccc(/C=C/c3ccccc3F)cc21 [Example 89AM, (S,E)-3-(4-((3-ethoxy-1-ethyl-1H-pyrazol-4-yl)sulfonyl)-6-(2-fluorostyryl)-3,4-dihydro-2H-benzo[b][1,4]oxazin-2-yl)propanoic acid]	–
< 5.00	< 5.00	O=C(O)CC[C@H]1CN(S(=O)(=O)c2cccc(C(F)(F)F)c2)c2cc(/C=C/c3ccncn3)ccc2O1 [Example 89CC, (S,E)-3-(6-(2-(pyrimidin-4-yl)vinyl)-4-((3-(trifluoromethyl)-phenyl)sulfonyl)-3,4-dihydro-2H-benzo[b][1,4]oxazin-2-yl)propanoic acid]	–
> 6.30	5.30 to 6.30	CC1CCC/C(=C\c2ccc3c(c2)N(S(=O)(=O)c2cccc(C(F)(F)F)c2)C[C@H](CCC(=O)O)O3)C1 (stereo partly drawn) [Example 95G, 3-((2S)-6-((E)-(3-methylcyclo-hexylidene)methyl)-4-((3-(trifluoromethyl)phenyl)sulfonyl)-3,4-dihydro-2H-benzo[b][1,4]-oxazin-2-yl)propanoic acid]	–
> 6.30	> 6.30	CCn1cc(S(=O)(=O)N2C[C@H](CCC(=O)O)Oc3ccc(/C=C/c4c(Cl)cccc4C(F)(F)F)cc32)c(OCCO)n1 [Example 89EA, (S,E)-3-(6-(2-chloro-6-(trifluoromethyl)styryl)-4-((1-ethyl-3-(2-hydroxyethoxy)-1H-pyrazol-4-yl)sulfonyl)-3,4-dihydro-2H-benzo[b][1,4]oxazin-2-yl)propanoic acid]	–
> 6.30	5.30 to 6.30	O=C(O)CC[C@H]1CN(S(=O)(=O)c2cccc(C(F)(F)F)c2)c2cc(/C=C/c3cccnc3C(F)(F)F)ccc2O1 [Example 89CK, (S,E)-3-(4-((3-(trifluoromethyl)-phenyl)sulfonyl)-6-(2-(2-(trifluoromethyl)pyridin-3-yl)vinyl)-3,4-dihydro-2H-benzo[b][1,4]oxazin-2-yl)propanoic acid]	–
> 6.30	> 6.30	COC(=O)CC[C@H]1CN(S(=O)(=O)c2cc(C(F)(F)F)cnc2OCCO)c2cc(/C=C/c3c(F)cccc3Cl)ccc2O1 [Example 89EB, methyl (S,E)-3-(6-(2-chloro-6-fluorostyryl)-4-((2-(2-hydroxyethoxy)-5-(trifluoromethyl)-pyridin-3-yl)sulfonyl)-3,4-dihydro-2H-benzo[b][1,4]oxazin-2-yl)propanoate]	–
